Test results from article PMC7893776, “Selecting an anti-malarial clinical candidate from two potent dihydroisoquinolones” (Malaria Journal, 2021).
Like-named read-outs stand apart in the source and are kept apart here. Values belong to the compound of their own block, whether it stands above or below them.

Assay: Rat pharmacokinetics, single PO or IV dose
Type: in vivo, male Sprague Dawley rats
Conditions: for fraction of the IV dose recovered in urine: 24-h sampling period; for AUC(0-inf): all dose levels 50–200 mg/kg, read-out: mean AUCinf
Text: Studies were undertaken to determine the plasma pharmacokinetics of SJ733 and SJ311. These studies included: (i) single oral gavage (PO) or intravenous (IV) dose administration to female C57BL/6 mice; (ii) single PO or IV dose administration to male Sprague Dawley (SD) rats; (iii) single PO or IV dose administration to male beagle dogs; (iv) toxicokinetic (TK) study following single PO administration to male SD rats. The PO and IV formulation used for mouse studies at SJCRH was 1% hydroxypropyl-beta-cyclodextrin (w/v), 10% ethanol (v/v), 10% propylene glycol (v/v), 40% PEG-400 (v/v) and 39% PBS (pH 7.4) isotonic (v/v). Compounds were dosed orally as suspensions, and intravenously as filtered solutions. Compound concentrations were confirmed post filtration using UV spectroscopy. The IV formulation used for rat studies (Monash University) was the same as that used for mice. For PO dosing to rats (Monash University) at 2 mg/kg, a suspension formulation was used containing 0.5% (w/v) hydroxypropyl methylcellulose, 0.5% (v/v) benzyl alcohol and 0.4% (v/v) Tween 80. The formulation used for rat studies at SRI (PO, high dose) was the same as that used in mouse PK studies. The formulation for the high dose TK study at SRI was 0.5% methylcellulose in sterile water. The formulation used for dog studies was the same as that used in mouse PK studies. The PO and IV PK of SJ733 and SJ311 were studied in overnight-fasted male Sprague Dawley rats. Rats had access to water ad libitum throughout the pre- and post-dose sampling period, and access to food was re-instated 4 h post-dose. […] Once collected, blood samples were centrifuged, supernatant plasma was removed and stored frozen (− 20 °C) until LC–MS analysis within 1 week of collection. The high dose levels of both compounds (50, 100, 200 mg/kg, PO, (+)-SJ733/311) were also independently tested by SRI, with a single oral gavage administration. Blood (through jugular vein) and urine were collected at time points up to 72 and 24 h post dose, respectively. Supernatant plasma was removed following centrifugation and stored frozen (− 70 °C) until LC–MS analysis. For toxicology studies, male Sprague Dawley rats were administered 50, 100, 250, 500, or 750 mg/kg of (r)-SJ733 or (r)-SJ311 by oral gavage (one dose per animal). Body weights were recorded on Day 1 prior to dose administration and on Day 4. Blood samples (400 µL) were collected at 4 and 24 h post drug administration from the retro-orbital sinus. Potassium EDTA treated plasma was collected and kept frozen at -70 °C for bioanalytical analysis. For studies at Monash University, rat plasma and urine samples were extracted utilizing protein precipitation with a twofold volume ratio of acetonitrile. SJ733, SJ311, and diazepam (IS) were detected using LC–MS/MS instrumentation. Aliquots (3 µL) were injected onto a Waters Acquity UPLC equipped with a Waters Micromass Xevo TQ MS/MS and separated using a Supelco Ascentis Express RP Amide column (50 × 2.1 mm, 2.7 µm) with a methanol–water gradient containing 0.05% formic acid. Calibration standards were prepared by spiking blank matrix (plasma or urine) and the calibration range was from 1 to 10,000 ng/mL for plasma or 2.5 to 5000 ng/mL for urine. Plasma and urine samples from the high dose rat PK studies were analyzed by SRI. In both matrices, the sample volume was 50 μL, and assay entailed the addition of 50 μL of internal standard solution to the standards and study samples. The compounds were used as reciprocal standards for one another (427 nM SJ733 in Milli-Q-Water for SJ571311 and 437 nM SJ311 in Milli-Q-Water for SJ733). These mixtures were then extracted with 1000 μL of ethyl acetate by vortexing for 10 min on a multi-tube vortex mixer at maximum speed followed by separation of the organic and aqueous phases by centrifugation (18,000×g, 5 min). […]

[1] = male, Sprague Dawley, plasma, PO
[2] = male, Sprague Dawley, plasma, PO, read-out: terminal half-life, mean t1/2

Compound: N#Cc1cc(NC(=O)C2c3ccccc3C(=O)N(CC(F)(F)F)C2c2cccnc2)ccc1F (racemic) [(r)-SJ733]
Tmax (in vivo, po, 19.8 mg/kg): 1.0 h

Compound: N#Cc1cc(NC(=O)[C@H]2c3ccccc3C(=O)N(CC(F)(F)F)[C@@H]2c2cn[nH]c2)ccc1F [(+)-SJ311]
Half life (in vivo, po, 20.4 mg/kg): 7.9, 7.9 h | AUCinf (in vivo, po, 50 mg/kg): 34.1 ± 8.7 µM·h | CL/F (in vivo, po, 50 mg/kg): 56.7 ± 16.7 mL/min/kg | Cmax (in vivo, po, 50 mg/kg): 4.4 ± 2 µM | F% (in vivo, po, 50 mg/kg): 20.5% | Half life (in vivo, po, 50 mg/kg): 3.5 ± 0.4 h | Tmax (in vivo, po, 50 mg/kg): 1.2 ± 0.8 h | V/F (in vivo, po, 50 mg/kg): 17 ± 7.0 L/kg | AUCinf (in vivo, po, 100 mg/kg): 61.9 ± 11.5 µM·h | CL/F (in vivo, po, 100 mg/kg): 60 ± 12 mL/min/kg | Cmax (in vivo, po, 100 mg/kg): 7.1 ± 0.81 µM | F% (in vivo, po, 100 mg/kg): 18.6% | Half life (in vivo, po, 100 mg/kg): 4.3 ± 2.2 h | Tmax (in vivo, po, 100 mg/kg): 4 h | V/F (in vivo, po, 100 mg/kg): 21 ± 8.0 L/kg | AUCinf (in vivo, po, 200 mg/kg): 65.8 ± 12.6 µM·h | CL/F (in vivo, po, 200 mg/kg): 112 ± 8.3 mL/min/kg | Cmax (in vivo, po, 200 mg/kg): 9.4 ± 5.4 µM | Dose in urine (in vivo, po, 200 mg/kg): 1.1 ± 0.4% | F% (in vivo, po, 200 mg/kg): 9.9% | Half life (in vivo, po, 200 mg/kg): 4 h | Tmax (in vivo, po, 200 mg/kg): 3.2 ± 4.2 h | V/F (in vivo, po, 200 mg/kg): 38 L/kg

Compound: N#Cc1cc(NC(=O)[C@H]2c3ccccc3C(=O)N(CC(F)(F)F)[C@@H]2c2cccnc2)ccc1F [(+)-SJ733]
AUCinf (in vivo, iv, 0.1 mg/kg): 14.7 ± 0.7 µM·h | CL (in vivo, iv, 0.1 mg/kg): 11.3 ± 0.33 mL/min/kg | Dose in urine (in vivo, iv, 0.1 mg/kg): 1.6 ± 0.5% | Half-life (in vivo, iv, 0.1 mg/kg): 9.2 ± 0.4 h | Vss (in vivo, iv, 0.1 mg/kg): 3.3 ± 0.2 L/kg | AUCinf (in vivo, po, 1.7 mg/kg): 1.9 ± 0.6^ c h.µM | Cmax (in vivo, po, 1.7 mg/kg): 0.7 ± 0.1 µM | Dose in urine (in vivo, po, 1.7 mg/kg): 0.5 ± 0.3% | F% (in vivo, po, 1.7 mg/kg): 36.7 ± 12% | Tmax (in vivo, po, 1.7 mg/kg): 0.7 ± 0.3 h | AUCinf (in vivo, po, 1.9 mg/kg): 6.6 ± 1.2 µM·h | Cmax (in vivo, po, 1.9 mg/kg): 0.9 ± 0.1 µM | Dose in urine (in vivo, po, 1.9 mg/kg): 1.2 ± 0.4% | F% (in vivo, po, 1.9 mg/kg): 111 ± 19% | Half life (in vivo, po, 1.9 mg/kg): 11.3 ± 6.0 h | Tmax (in vivo, po, 1.9 mg/kg): 3.0 ± 0.9 h | AUCinf (in vivo, po, 50 mg/kg): 96.3 ± 5.8 µM·h | CL/F (in vivo, po, 50 mg/kg): 18.3 ± 1.7 mL/min/kg | Cmax (in vivo, po, 50 mg/kg): 11.1 ± 1.2 µM | F% (in vivo, po, 50 mg/kg): 74.5% | Half life (in vivo, po, 50 mg/kg): 7.7 ± 3.2 h | Tmax (in vivo, po, 50 mg/kg): 4 h | V/F (in vivo, po, 50 mg/kg): 12 ± 5.0 L/kg | AUCinf (in vivo, po, 100 mg/kg): 180 ± 23.2 µM·h | CL/F (in vivo, po, 100 mg/kg): 20 ± 1.7 mL/min/kg | Cmax (in vivo, po, 100 mg/kg): 16.6 ± 3.2 µM | F% (in vivo, po, 100 mg/kg): 69.6% | Half life (in vivo, po, 100 mg/kg): 10.3 ± 6.9 h | Tmax (in vivo, po, 100 mg/kg): 3.0 ± 1.7 h | V/F (in vivo, po, 100 mg/kg): 17 ± 9.0 L/kg | AUCinf (in vivo, po, 200 mg/kg): 330 ± 78.4 µM·h | CL/F (in vivo, po, 200 mg/kg): 21.7 ± 5 mL/min/kg | Cmax (in vivo, po, 200 mg/kg): 27.9 ± 3.8 µM | Dose in urine (in vivo, po, 200 mg/kg): 0.2 ± 0.1% | F% (in vivo, po, 200 mg/kg): 63.8% | Half life (in vivo, po, 200 mg/kg): 7.7 ± 3.3 h | Tmax (in vivo, po, 200 mg/kg): 4.0 ± 3.5 h | V/F (in vivo, po, 200 mg/kg): 15 ± 9.0 L/kg

Continued, values first:

fraction of the IV dose recovered in urine (IV): ~1.5% | Half-life (male, Sprague Dawley, plasma, IV, isomers and racemate at similar doses, read-out: IV half-lives): 5 to 18 h | AUC(0-inf) [1]: 96.3 to 330 µM·h | Half-life [2]: 7.7 to 10.3 h | bioavailability (male, Sprague Dawley, plasma, po, summary over the oral doses studied, read-out: Rat F (oral bioavailability)): 60 to 100% | clearance (male, Sprague Dawley, plasma, read-out: measured in vivo clearance (converted)): ~11.7 mL/min/kg | Rat F (oral bioavailability) (summary over the oral doses studied): 63-122%
Compound: N#Cc1cc(NC(=O)[C@H]2c3ccccc3C(=O)N(CC(F)(F)F)[C@@H]2c2cccnc2)ccc1F (racemic) [SJ733]

fraction of the IV dose recovered in urine (IV): ca. 22% | AUC(0-inf) [1]: 34.1 to 65.8 µM·h | Half-life [2]: 3.5 to 7.9 h
Compound: N#Cc1cc(NC(=O)[C@H]2c3ccccc3C(=O)N(CC(F)(F)F)[C@@H]2c2cn[nH]c2)ccc1F [SJ311]
